Laboratory results from patent US20020028836A1, “Potassium channel openers” (priority 2000, published 2002).

Columns and labels:
[1] = test system: primary cultured guinea-pig urinary bladder (GPB) cells; assay: Membrane hyperpolarization (MHP) assay, DiBAC(4)3 / FLIPR; type: cell-based; conditions: Cavia porcellus; for EC50: concentration that elicits 50% of the maximal response for the test sample; for Emax: maximal steady-state hyperpolarization, normalized to response with 10 μM P1075 (100%)
In short: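 Primary smooth-muscle cells from male guinea-pig bladder, grown to confluence, loaded 30 min at 37° C with 5 μM DiBAC(4)3 in HEPES buffer pH 7.4. Fluorescence drop on FLIPR followed 25 min after compound; steady-state hyperpolarization normalized to 10 μM P1075 (100%), EC50 from four-parameter fit of five concentrations.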

| SMILES | EC50 [1] [µM] | Emax [1] [%] | melting point [°C] |
| --- | --- | --- | --- |
| Cc1ccc(C(=O)NC(NC(=S)Nc2ccc(Cl)nc2)C(F)(F)F)cc1 (stereo not drawn) [Example 7, N-[1-({[(6-chloro-3-pyridinyl)amino]carbothioyl}amino)-2,2,2-trifluoroethyl]-4-methylbenzamide] | 0.45 | 101 | 199 to 200 |
| CCC1(C(NC(=O)c2ccc(Cl)cc2)NC(=NC#N)Nc2cccnc2)COCOC1 (stereo not drawn) [Example 101, 4-chloro-N-[{[(cyanoimino)(3-pyridinylamino)methyl]amino}(5-ethyl-1,3-dioxan-5-yl)methyl]benzamide] | 6.1 | 59 | 194 to 195 |
| CC(C)(C1CCCCC1)C(NC(=O)c1ccc(Cl)cc1)NC(=N[N+](=O)[O-])Nc1cccnc1 (stereo not drawn) [Example 130, 4-chloro-N-(1-{[(nitroimino)(3-pyridinylamino)methyl]amino}-2-cyclohexyl-2-methylpropyl)benzamide] | 0.53 | 147 | 201 to 203 |
| CCC(CC)C(NC(=O)c1ccc(Cl)cc1)NC(=NC#N)Nc1cccnc1 (stereo not drawn) [Example 59, 4-chloro-N-(1-{[(cyanoimino)(3-pyridinylamino)methyl]amino}-2-ethylbutyl)benzamide] | 0.31 | 73 | 185 to 187 |
| Cc1ccc(C(=O)NC(C)NC(=S)Nc2cccc([N+](=O)[O-])c2)cc1 (stereo not drawn) [Example 29, 4-methyl-N-(1-{[(3-nitroanilino)carbothioyl]amino}ethyl)benzamide] | 1 | 28 | 172 to 175 |
| CCC(NC(=O)c1ccc(Cl)cc1)NC(=NC#N)Nc1cccnc1 (stereo not drawn) [Example 84, 4-chloro-N-(1-{[(cyanoimino)(3-pyridinylamino)methyl]amino}propyl)benzamide] | 6 | 69 | 181 to 183 |
| Cc1ccccc1C(=O)NC(NC(=S)Nc1cccnc1)C(C)(C)C (stereo not drawn) [Example 26, N-(2,2-dimethyl-1-{[(3-pyridinylamino)carbothioyl]amino}propyl)-2-methylbenzamide] | 0.99 | 80 | 186 to 187 |
| Cc1ccc(C(=O)NC(NC(=O)Nc2ccccc2)C(Cl)(Cl)Cl)cc1 (stereo not drawn) [Example 42, N-{1-[(anilinocarbonyl)amino]-2,2,2-trichloroethyl}-4-methylbenzamide] | 2.14 | 66 | 230 to 233 |
| CCC(CC)C(NC(=O)c1ccc(Cl)cc1)NC(=C[N+](=O)[O-])Nc1cccnc1 (stereo not drawn) [Example 68, 4-chloro-N-(2-ethyl-1-{[2-nitro-1-(3-pyridinylamino)ethenyl]amino}butyl)benzamide] | 0.43 | 99 | 192 to 193 |
| COc1ccccc1NC(=S)NC(NC(=O)c1ccc(C)cc1)C(F)(F)F (stereo not drawn) [Example 8, 4-methyl-N-(2,2,2-trifluoro-1-{[(2-methoxyanilino)carbothioyl]amino}ethyl)benzamide] | ≥ 10 | 10 | 212 to 214 |
| COc1cccc(NC(=S)NC(NC(=O)c2ccc(C)cc2)C(F)(F)F)c1 (stereo not drawn) [Example 12, 4-methyl-N-(2,2,2-trifluoro-1-{[(3-methoxyanilino)carbothioyl]amino}ethyl)benzamide] | ≥ 10 | 4 | 206 to 208 |
| Cc1ccc(C(=O)NC(Cc2ccccc2)NC(=S)Nc2cccc([N+](=O)[O-])c2)cc1 (stereo not drawn) [Example 30, 4-methyl-N-(1-{[(3-nitroanilino)carbothioyl]amino}-2-phenylethyl)benzamide] | 3.2 | 22 | 170 to 171 |
| N#CN=C(NCNC(=O)c1ccc(Cl)cc1)Nc1cccnc1 [Example 85, 4-chloro-N-({[(cyanoimino)(3-pyridinylamino)methyl]amino}methyl)benzamide] | > 10 | < 20 | 196 to 197 |
| CC[C@H](C)[C@H](NC(=O)c1ccc(C)cc1)NC(=S)Nc1cccnc1 [Example 36, 4-methyl-N-((1R,2S)-2-methyl-1-{[(3-pyridinylamino)carbothioyl]amino}butyl)benzamide] | 25.5 | 50 | 102 to 104 |
| CC(C)(C)C(NC(=O)c1ccc(Cl)cc1)NC(=NC#N)Nc1cccc(F)c1 (stereo not drawn) [Example 70, 4-chloro-N-(1-{[(cyanoimino)(3-fluoroanilino)methyl]amino}-2,2-dimethylpropyl)benzamide] | 0.32 | 74 | 167 to 170 |
| O=C(NC(CC12CC3CC(CC(C3)C1)C2)NC(=N[N+](=O)[O-])Nc1cccnc1)c1ccc(Cl)cc1 (stereo not drawn) [Example 134, N-(2-(1-adamantyl)-1-{[(nitroimino)(3-pyridinylamino)methyl]amino}ethyl)-4-chlorobenzamide] | 2 | 86 | 219 to 220 |

| SMILES | EC50 [1] [µM] | Emax [1] [%] | melting point [°C] |
| --- | --- | --- | --- |
| Cc1ccc(C(=O)NC(N2CCN(c3cccc(F)c3)C2=S)C(Cl)(Cl)Cl)cc1 (stereo not drawn) [Example 37, 4-methyl-N-{2,2,2-trichloro-1-[3-(3-fluorophenyl)-2-thioxo-1-imidazolidinyl]ethyl}benzamide] | 0.78 | 85 | 184 to 186 |
| Cc1ccc(C(=O)NC(NC(=S)Nc2cccc(C)c2)C(F)(F)F)cc1 (stereo not drawn) [Example 16, 4-methyl-N-{2,2,2-trifluoro-1-[(3-toluidinocarbothioyl)amino]ethyl}benzamide] | 0.37 | 65 | 197 to 198 |
| O=C(NC(NC(=S)Nc1cccnc1)C(F)(F)F)c1ccc(Cl)cc1 (stereo not drawn) [Example 19, 4-chloro-N-(2,2,2-trifluoro-1-{[(3-pyridinylamino)carbothioyl]amino}ethyl)benzamide] | 0.06 | 117 | 147 to 149 |
| CC(C)(C)CC(NC(=O)c1ccc(Cl)cc1)NC(=NC#N)Nc1cccnc1 (stereo not drawn) [Example 62, 4-chloro-N-(1-{[(cyanoimino)(3-pyridinylamino)methyl]amino}-3,3-dimethylbutyl)benzamide] | 0.33 | 81 | 181 to 183 |
| CC(C)(C1CCCCC1)C(NC(=O)c1ccc(Cl)cc1)NC(=NC#N)Nc1cccnc1 (stereo not drawn) [Example 93, 4-chloro-N-(1-{[(cyanoimino)(3-pyridinylamino)methyl]amino}-2-cyclohexyl-2-methylpropyl)benzamide] | 0.14 | 75 | 181 to 183 |
| Cc1ccc(C(=O)NC(NC(=S)Nc2cccnc2)C(C)C)cc1 (stereo not drawn) [Example 35, 4-methyl-N-(2-methyl-1-{[(3-pyridinylamino)carbothioyl]amino}propyl)benzamide] | 13.1 | 40 | 184 to 186 |
| Cc1ccc(C(=O)NC(NC(=S)Nc2cccc(C(F)(F)F)c2F)C(F)(F)F)cc1 (stereo not drawn) [Example 5, 4-methyl-N-[2,2,2-trifluoro-1-({[2-fluoro-3-(trifluoromethyl)anilino]carbothioyl}amino)ethyl]benzamide] | 1.08 | 106 | 179 to 181 |
| Cc1ccccc1C(=O)NC(NC(=O)Nc1cccnc1)C(Cl)(Cl)Cl (stereo not drawn) [Example 39, 2-methyl-N-(2,2,2-trichloro-1-{[(3-pyridinylamino)carbonyl]amino}ethyl)benzamide] | 0.46 | 101 | 182 to 184 |
| Cc1ccc(NC(=S)NC(NC(=O)c2ccc(C)cc2)C(F)(F)F)cc1 (stereo not drawn) [Example 10, 4-methyl-N-{2,2,2-trifluoro-1-[(4-toluidinocarbothioyl)amino]ethyl}benzamide] | 0.7 | 65 | 192 to 193 |
| N#CN=C(Nc1cccnc1)NC(NC(=O)c1ccc(Cl)cc1)C1CCCCC1 (stereo not drawn) [Example 61, 4-chloro-N-[{[(cyanoimino)(3-pyridinylamino)methyl]amino}(cyclohexyl)methyl]benzamide] | 0.33 | 36 | 190 to 192 |
| CC(C)(Cc1ccccc1)C(NC(=O)c1ccc(Cl)cc1)NC(=N[N+](=O)[O-])Nc1cccnc1 (stereo not drawn) [Example 128, 4-chloro-N-(1-{[(nitroimino)(3-pyridinylamino)methyl]amino}-2,2-dimethyl-3-phenylpropyl)benzamide] | 0.47 | 116 | 205 to 207 |
| N#CN=C(Nc1cccnc1)NC(CC12CC3CC(CC(C3)C1)C2)NC(=O)c1ccc(Cl)cc1 (stereo not drawn) [Example 95, N-(2-(1-adamantyl)-1-{[(cyanoimino)(3-pyridinylamino)methyl]amino}ethyl)-4-chlorobenzamide] | 0.84 | 97 | 202 to 203 |
| CC(C)C(NC(=O)c1ccc(Cl)cc1)NC(=NC#N)Nc1cccnc1 (stereo not drawn) [Example 63, 4-chloro-N-(1-{[(cyanoimino)(3-pyridinylamino)methyl]amino}-2-methylpropyl)benzamide] | 4.4 | 73 | 182 to 184 |
| C=CCOCC(CC)(COCC=C)C(NC(=O)c1ccc(Cl)cc1)NC(=N[N+](=O)[O-])Nc1cccnc1 (stereo not drawn) [Example 131, N-(2,2-bis[(allyloxy)methyl]-1-{[(nitroimino)(3-pyridinylamino)methyl]amino}butyl)-4-chlorobenzamide] | 2 | 53 | 175 to 180 |
| CSCCC(NC(=O)c1ccc(Cl)cc1)NC(=NC#N)Nc1cccnc1 (stereo not drawn) [Example 99, 4-chloro-N-[1-{[(cyanoimino)(3-pyridinylamino)methyl]amino}-3-(methylsulfanyl)propyl]benzamide] | 3.5 | 84 | 104 to 105 |
